Test [1] has as its target T1, Dual specificity calcium/calmodulin-dependent 3',5'-cyclic nucleotide phosphodiesterase 1C (Homo sapiens, UniProt Q14123). The experiment in a line: Inhibition of PDE1C (147 to 531 residues) (unknown origin) expressed in Escherichia coli BL21 at 1000 nM [3H]-cGMP as substrate measured for 15 mins by liquid scintillation counter method relative to control.
Test [2] addresses T1, Dual specificity calcium/calmodulin-dependent 3',5'-cyclic nucleotide phosphodiesterase 1C. The experiment in a line: Inhibition of PDE1C (147 to 531 residues) (unknown origin) expressed in Escherichia coli BL21 using [3H]-cGMP as substrate measured for 15 mins by liquid scintillation counter method.
For a further test, the species on record is Homo sapiens. The experiment in a line: Selectivity ratio of IC50 for PDE4D (unknown origin) expressed in Escherichia coli BL21 to IC50 for PDE1C (147 to 531 residues) (unknown origin) expressed in Escherichia coli BL21.
The test system of test [3] is Rattus norvegicus. Put plainly: Antifibrotic activity in bleomycin-induced Sprague-Dawley rat lung fibrosis model assessed as decrease in alpha-smooth muscle actin level at 150 mg/kg, po administered daily for 28 days by Western blot analysis. Type of test: functional, organism-based. The conditions noted are these: time 28.0 day. On the technique in general: A western blot detects proteins with antibodies after separation by electrophoresis.

For test [4], the system named is Rattus norvegicus. Put plainly: Antifibrotic activity in bleomycin-induced Sprague-Dawley rat lung fibrosis model assessed as decrease in collagen I level at 150 mg/kg, po administered daily for 28 days by Western blot analysis. Type of test: functional, organism-based. The conditions noted are these: time 28.0 day.
Test [5] has as its system Rattus norvegicus. Put plainly: Antifibrotic activity in bleomycin-induced Sprague-Dawley rat lung fibrosis model assessed as decrease in fibronectin level at 150 mg/kg, po administered daily for 28 days by Western blot analysis. The conditions noted are these: time 28.0 day. Type of test: functional, organism-based.

From ChEMBL document CHEMBL5154941, “Structural Modifications of Nimodipine Lead to Novel PDE1 Inhibitors with Anti-pulmonary Fibrosis Effects” (J Med Chem, 2022) come the findings set out here.

Active and inactive are the calls of the source. The calls are words filed in the database; no cut-off is given here. Bounds are passed on as bounds.

T1 sequence (Q14123 whole entry, the tested form may be a part): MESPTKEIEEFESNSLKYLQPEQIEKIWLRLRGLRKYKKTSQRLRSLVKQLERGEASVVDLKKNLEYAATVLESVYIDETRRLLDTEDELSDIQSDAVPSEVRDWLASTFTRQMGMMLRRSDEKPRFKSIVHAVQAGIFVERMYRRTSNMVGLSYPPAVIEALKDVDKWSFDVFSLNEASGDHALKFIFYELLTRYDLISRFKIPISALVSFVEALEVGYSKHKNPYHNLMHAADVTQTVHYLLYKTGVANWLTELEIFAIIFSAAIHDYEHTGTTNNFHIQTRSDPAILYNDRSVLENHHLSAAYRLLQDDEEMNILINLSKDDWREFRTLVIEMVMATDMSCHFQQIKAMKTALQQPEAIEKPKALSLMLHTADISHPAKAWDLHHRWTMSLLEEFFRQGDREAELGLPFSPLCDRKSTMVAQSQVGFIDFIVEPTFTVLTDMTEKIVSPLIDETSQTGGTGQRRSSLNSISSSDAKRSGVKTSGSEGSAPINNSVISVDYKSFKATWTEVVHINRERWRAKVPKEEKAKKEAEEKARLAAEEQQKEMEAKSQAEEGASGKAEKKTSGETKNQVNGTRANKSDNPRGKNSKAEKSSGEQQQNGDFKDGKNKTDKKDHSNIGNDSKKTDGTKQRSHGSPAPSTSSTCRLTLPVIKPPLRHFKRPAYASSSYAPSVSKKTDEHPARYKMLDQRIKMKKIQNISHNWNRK

On to `COC(=O)C1=C(C)NC(C)=C(C(=O)OC)C1c1ccc(OC)c(OC)c1`, for which the inhibition (as a rule, the drop in the measured response relative to a control, in per cent) in test [1] was determined as 43%.
As for `COC(=O)C1=C(C)NC(C)=C(C(=O)OC)C1c1ccccc1[N+](=O)[O-]` [NIFEDIPINE], in test [2], the 50% inhibitory concentration (IC50) (in general, the concentration at which inhibition is half-maximal) was above 10 µM.
Consider `COCCOC(=O)C1=C(C)NC(C)=C(C(=O)OC(C)C)C1c1cccc([N+](=O)[O-])c1` (configuration not stated) [NIMODIPINE], for which the IC50 in test [2] came out at 1.24 µM. The Ratio IC50 in the test filed under Homo sapiens was 5.8.
Take `COC(=O)C1=C(C)NC(C)=C(C(=O)OC)C1c1ccc(F)c(F)c1`: the inhibition in test [1] was 42%.
For `CC1=C(C(=O)OCc2cncs2)C(c2ccc3c(cnn3C)c2)C(C(=O)OCc2cncs2)=C(C)N1`, in test [2], the IC50 was found to be 0.189 µM.
On to `CCOC(=O)C1=C(C)NC(C)=C(C(=O)OC)C1c1cccc([N+](=O)[O-])c1` (configuration not stated) [NITRENDIPINE], for which, in test [2], the IC50 worked out at 1.85 µM.
With `COC(=O)C1=C(C)NC(C)=C(C(=O)OC)C1c1cccc(OC)c1`, in test [1], the inhibition is 7%.
For the compound `Cc1ccc(=O)n(-c2ccccc2)c1`, the outcome in the test on Rattus norvegicus [3], in the test on Rattus norvegicus [4] and in the test with Rattus norvegicus [5] was Active.
For `COC(=O)C1=C(C)NC(C)=C(C(=O)OC)C1c1cccc(C#N)c1`, the inhibition in test [1] is 25%.
